{
  "source": "patent US7875270B2",
  "about": "“Treatment solution and method for preventing posterior capsular opacification by selectively inducing detachment and/or death of lens epithelial cells” (Abbott Medical Optics Inc., priority 2002, dated 2011)",
  "test_system": "human LECs-CCCs freshly removed from cataract operation",
  "assay": "In situ treatment of LECs attached to capsulorhexis lens capsule (LECs-CCC)",
  "format": "cell-based",
  "procedure": "The in situ effects of a treatment solution comprising dihydrochlorothiazide (DHCT) (a cotransport interference agent from the group of the thiazide and related diuretics) and hyperosmotic NaCl on human LECs is examined. The treatment is tested on LECs that are still attached to a continuous curvilinear capsulorhexis lens capsule (LECs-CCC) which are freshly removed from a human cataract operation.\nThe LECs-CCCs are obtained from a cataract operation and immediately put in freshly prepared Eagle's Minimum Essential Medium (MEM) supplemented with 2 mM glutamine, 25 mmol/L Hepes (pH 7.4) without foetal cow serum (FCS) and is transferred to the laboratory for evaluation. Viable LECs are identified by staining the LECs-CCCs for five minutes with 0.2% Trypan Blue. The sheets containing more than 70% viable LECs are used to assess the efficacy of the treatment. […]\nIn the first step, a hyperosmotic solution of NaCl is prepared by making a stock solution of 2 M NaCl by adding 58.44 g NaCl (supplied by Sigma Chemical Co., U.S.) to 500 ml dH2O. The desired concentration of osmotic NaCl is prepared by diluting the 2M stock solution with dH2O. For example, to make a hyperosmotic solution of 170 mM NaCl, the 2M NaCl stock solution was diluted with dH2O at a ratio of […]. To make a hyperosmotic solution of 200 mM NaCl, the 2M NaCl stock solution is diluted with dH2O at a ratio of 1 to 9. Final osmolarities (mOsm/kg/H2O) are determined by a freezing point depression method using cryoscopic osmometry.\nIn the second step, DHCT stock solution is made by adding 25 mg DHCT to 1 ml dH2O. […]\nThe treatment is applied by exposing the LECs-CCCs for five minutes in a small petri dish containing the treatment solution. The treatment solution is removed after five minutes exposure by a syringe and then the fresh PBS is added in the petri dish to wash away the treatment solution. The LECs-CCCs are washed three times. The changes of the LECS are monitored under a microscope. Microscope photographs are taken at 0, 2 and 5 minutes and after wash.",
  "data": [
    {"smiles": "CCCCNc1cc(C(=O)O)cc(S(N)(=O)=O)c1Oc1ccccc1", "note": "[bumetanide]", "values": [
      {"measurement": "LEC changes after exposure", "setting": "308 μm bumetanide and hyperosmotic 170 or 200 mM NaCl", "value": "do not detach, but arrest and die while shrunken"},
      {"measurement": "LEC death by trypan blue exclusion", "setting": "308 μm bumetanide and hyperosmotic NaCl, after washing", "value": "cells died after treatment"}
    ]}
  ]
}
